What was measured:
[1] = target: T1, FtsZ2-1 (Physcomitrium patens, UniProt O49922); assay: malachite green phosphate release GTPase assay; type: biochemical; conditions: 1 mM GTP, 7.5 µM protein, 37.5 mM glycine pH 10, 100 mM KCl, 5 mM MgCl2, 5% glycerol, 25 °C, 10 min
T1 construct: gene ftsZ 2-1; lacks N-terminal transit peptide (42 aa, TargetP-2.0); N-terminal His6-SUMO tag cleaved with Ulp1; codon-optimised, expressed in E. coli NiCo; start 43 follows from the removed 42 aa

[2] = target: T2, FtsZ1-2 (Physcomitrium patens, UniProt A9SRP3); assay: malachite green phosphate release GTPase assay; type: biochemical; conditions: 1 mM GTP, 7.5 µM protein, 37.5 mM glycine pH 10, 100 mM KCl, 5 mM MgCl2, 5% glycerol, 25 °C, 10 min
T2 construct: gene LOC112295762; lacks N-terminal transit peptide (86 aa, TargetP-2.0); N-terminal His6-SUMO tag cleaved with Ulp1; codon-optimised, expressed in E. coli NiCo; start 87 follows from the removed 86 aa
T2 sequence (A9SRP3 entry or part of it): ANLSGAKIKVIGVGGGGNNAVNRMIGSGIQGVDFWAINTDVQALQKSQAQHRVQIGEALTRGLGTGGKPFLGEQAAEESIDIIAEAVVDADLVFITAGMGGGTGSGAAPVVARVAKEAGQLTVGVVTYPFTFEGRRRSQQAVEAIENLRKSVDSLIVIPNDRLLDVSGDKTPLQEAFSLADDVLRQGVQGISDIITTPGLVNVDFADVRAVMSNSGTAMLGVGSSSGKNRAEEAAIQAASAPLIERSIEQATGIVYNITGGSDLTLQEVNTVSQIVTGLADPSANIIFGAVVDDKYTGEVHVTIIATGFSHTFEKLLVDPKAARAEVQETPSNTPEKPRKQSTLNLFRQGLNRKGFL

T1 sequence (O49922 entry or part of it): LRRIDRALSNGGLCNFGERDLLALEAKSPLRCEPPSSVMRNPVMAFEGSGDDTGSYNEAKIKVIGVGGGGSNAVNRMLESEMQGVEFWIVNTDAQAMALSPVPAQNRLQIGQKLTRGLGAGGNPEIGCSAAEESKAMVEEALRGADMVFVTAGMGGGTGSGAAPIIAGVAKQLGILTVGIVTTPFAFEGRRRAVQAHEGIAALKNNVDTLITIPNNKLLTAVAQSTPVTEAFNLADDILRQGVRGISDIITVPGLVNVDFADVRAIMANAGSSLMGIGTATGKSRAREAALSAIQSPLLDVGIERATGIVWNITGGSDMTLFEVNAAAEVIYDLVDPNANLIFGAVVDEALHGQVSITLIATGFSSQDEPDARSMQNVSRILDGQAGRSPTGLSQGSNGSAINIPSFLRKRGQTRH

With Nc1nc2c(ncn2[C@@H]2O[C@H](COP(=O)(O)OP(=O)(O)OP(=O)(O)O)[C@@H](O)[C@H]2O)c(=O)[nH]1 [GTP] the “malachite green phosphate release GTPase assay” value [1] was “Both FtsZ proteins exhibited low but significant GTPase activities” and the “malachite green phosphate release GTPase assay” value [2] was “Both FtsZ proteins exhibited low but significant GTPase activities”.

Reference: paper PMC11760385, “Differential GTP-dependent in-vitro polymerization of recombinant Physcomitrella FtsZ proteins” (Scientific Reports, 2025)
